In US11844801B2, “Oral compositions of MK2 pathway inhibitor for treatment of immune conditions” (priority 2020, dated 2023):
Values joined by “and” are separate entries in the source; they are usually repeats but may differ in a detail not shown here. Equal values may be shown once. Read-outs that look alike come from different tables or passages of the source.

Experiment: Phase 1 SAD/MAD pharmacokinetics of oral ATI-450 in healthy subjects (incl. 80/120 mg BID extension)
Type: in vivo, human
Settings: for concentration at 7 day / concentration at 2 day / concentration at 3 day / concentration at 4 day / concentration at 5 day / concentration at 6 day: read-out: Ctrough; for Tmax: read-out: Tmax, median (min, max); for concentration at 2 day: day 2; for concentration at 3 day: day 3; for concentration at 4 day: day 4; for concentration at 5 day: day 5; for concentration at 6 day: day 6; for half-life: read-out: t1/2 (converted)
Protocol: Study Design. […] Single ascending dose (SAD) cohorts. […] Multiple ascending dose (MAD) cohorts. […] Blood Sampling and Bioanalysis. Two-milliliter blood samples were collected for PK analysis. […] The lower limit of quantification was 0.500 ng/mL. Pharmacokinetics. […] Bioanalysis Assay of ATI-450. Sample processing was performed by protein precipitation using a 50.0-μL sample volume. […] A triple quadrupole 6500 mass spectrometer equipped with a turbo-ion spray source was used for detection in positive ion mode. […] A linear calibration curve ranging from 0.500 to 500 ng/mL with a 1/x^2 weighting factor was used. The method was minimally required to have intra- and inter-day precision (coefficients of variation) for pooled plasma quality control samples of ≤15% except at the lower limit of quantitation, where ≤20% was acceptable. The calculated concentrations (both inter- and intra-day) were required to be within 15% of nominal at all concentrations except the lower limit of quantitation, where up to 20% deviation from nominal was acceptable. The precision and accuracy of the method exceeded these minimum requirements for assay validation.

[1] = 100 mg single dose, fed vs fasted
[2] = both sexes, human, plasma, oral, 10 mg, 10 mg BID
[3] = both sexes, human, plasma, oral, 10 mg, 10 mg BID, day 7
[4] = both sexes, human, plasma, oral, 30 mg, 30 mg BID
[5] = both sexes, human, plasma, oral, 30 mg, 30 mg BID, day 7
[6] = both sexes, human, plasma, oral, 50 mg, 50 mg BID, day 1
[7] = both sexes, human, plasma, oral, 50 mg, 50 mg BID
[8] = both sexes, human, plasma, oral, 50 mg, 50 mg BID, day 7

Cc1cnc(-c2ccnc(C(C)(C)O)n2)cc1-n1c(C)cc(OCc2ncc(F)cc2F)c(Cl)c1=O (single isomer, unassigned) [ATI-450, 3-chloro-4-((3,5-difluoropyridin-2-yl)methoxy)-2′-(2-(2-hydroxypropan-2-yl)pyrimidin-4-yl)-5′,6-dimethyl-2H-[1,4′-bipyridin]-2-one]
AUC(0-t) (10 mg BID, day 7): 364.6 ± 110.7 ng·h/mL
AUCtau (10 mg BID, day 7): 287.8 ± 81.5 ng·h/mL
CLss/F (10 mg BID, day 7): 37.4 ± 10.9 L/h
Cavg (10 mg BID, day 7): 24.0 ± 6.8 ng/mL
Cmin (10 mg BID, day 7): 8.1 ± 3.1 ng/mL
Ctrough (10 mg BID, day 7): 11.8 ± 5.2 ng/mL
Tmax, median (min, max) (10 mg BID, day 7): 2.0 (2.0-2.0) h
Vss/F (10 mg BID, day 7): 517.4 ± 203.2 L
AUC(0-t) (30 mg BID, day 7): 1204.6 ± 309.1 ng·h/mL
AUCtau (30 mg BID, day 7): 908.9 ± 163.1 ng·h/mL
CLss/F (30 mg BID, day 7): 33.9 ± 5.9 L/h
Cavg (30 mg BID, day 7): 75.6 ± 13.4 ng/mL
Cmin (30 mg BID, day 7): 28.8 ± 10.7 ng/mL
Ctrough (30 mg BID, day 7): 41.1 ± 18.3 ng/mL
Tmax, median (min, max) (30 mg BID, day 7): 2.0 (1.0-4.0) h
Vss/F (30 mg BID, day 7): 483.1 ± 85.1 L
t1/2 (30 mg BID, day 7): 10.3 ± 3.2 h
Tmax, median (min, max) (50 mg BID, day 1): 2.0 (2.0-4.0) h
AUC0-12 (50 mg BID, day 7): 1507.8 (659.9) ng · h/mL
CLss/F (50 mg BID, day 7): 37.3 ± 11.7 L/h
Cavg (50 mg BID, day 7): 125.6 ± 55.0 ng/mL
Cmax (50 mg BID, day 7): 219.0 (77.8) ng/mL
Cmin (50 mg BID, day 7): 58.7 ± 32.8 ng/mL
Ctrough (50 mg BID, day 7): 87.9 ± 49.4 ng/mL
Tmax, median (min, max) (50 mg BID, day 7): 3.0 (1.0, 4.0) h and 3.0 (1.0-4.0) h
CLss/F (80 mg BID, day 7): 33.2 ± 7.6 L/h
Ctrough (80 mg BID, day 7): 158.3 ± 60.3 ng/mL
AUC0-∞ higher in the fed state [1]: about 24%
Cmax lower in the fed state [1]: about 9%
CLss/F (120 mg BID, day 7): 52.3 ± 17.4 L/h
Ctrough (120 mg BID, day 7): 155.8 ± 93.1 ng/mL
accumulation after multiple dosing (10-50 mg BID): up to 1.4 fold
terminal half-life (mean t1/2), range over cohorts (MAD cohorts 10-50 mg BID, day 7): 9 to 12 h
concentration at 7 day (both sexes, human, plasma, oral, 10 mg BID, day 7): 11.8 ng/mL
AUC(0-t) (both sexes, human, plasma, oral, 10 mg, 10 mg BID, day 1, read-out: AUC0-12): 200 ng·h/mL
Cmax (both sexes, human, plasma, oral, 10 mg, 10 mg BID, day 1, read-out: Cmax): 34.3 ng/mL
Tmax (both sexes, human, plasma, oral, 10 mg, 10 mg BID, day 1): 2 h
concentration at 2 day [2]: 10.1 ± 4.7 ng/mL
concentration at 3 day [2]: 9.8 ± 4.5 ng/mL
concentration at 4 day [2]: 9.2 ± 5 ng/mL
concentration at 5 day [2]: 9.6 ± 4.7 ng/mL
concentration at 6 day [2]: 10.7 ± 4.9 ng/mL
AUC(0-t) (both sexes, human, plasma, oral, 10 mg, 10 mg BID, day 7, read-out: AUC0-12): 288 ng·h/mL
Cmax (both sexes, human, plasma, oral, 10 mg, 10 mg BID, day 7, read-out: Cmax): 51.8 ng/mL
Tmax [3]: 2 h
half-life [3]: 9.6 h
concentration at 7 day (both sexes, human, plasma, oral, 30 mg BID, day 7): 41.1 ng/mL
AUC(0-t) (both sexes, human, plasma, oral, 30 mg, 30 mg BID, day 1, read-out: AUC0-12): 681 ng·h/mL
Cmax (both sexes, human, plasma, oral, 30 mg, 30 mg BID, day 1, read-out: Cmax): 126 ng/mL
Tmax (both sexes, human, plasma, oral, 30 mg, 30 mg BID, day 1): 2 h
concentration at 2 day [4]: 37.5 ± 18.8 ng/mL
concentration at 3 day [4]: 44.1 ± 29.3 ng/mL
concentration at 4 day [4]: 36.8 ± 14.9 ng/mL
concentration at 5 day [4]: 34.9 ± 13.8 ng/mL
concentration at 6 day [4]: 38.9 ± 16.2 ng/mL
AUC(0-t) (both sexes, human, plasma, oral, 30 mg, 30 mg BID, day 7, read-out: AUC0-12): 909 ng·h/mL
Cmax (both sexes, human, plasma, oral, 30 mg, 30 mg BID, day 7, read-out: Cmax): 146 ng/mL
Tmax [5]: 2 h
half-life [5]: 10.3 h
concentration at 7 day (both sexes, human, plasma, oral, 50 mg BID, day 7): 87.9 ng/mL
AUC [6]: 1180 ± 340 ng·h/mL
AUC(0-t) (both sexes, human, plasma, oral, 50 mg, 50 mg BID, day 1, read-out: AUC0-12): 1180 ng·h/mL
AUC(0-t) (both sexes, human, plasma, oral, 50 mg, 50 mg BID, day 1, read-out: AUC0-t): 1180 ± 340 ng·h/mL
Cmax (both sexes, human, plasma, oral, 50 mg, 50 mg BID, day 1, read-out: Cmax): 187 ng/mL
Tmax [6]: 2 h
concentration at 2 day [7]: 84 ± 40.6 ng/mL
concentration at 3 day [7]: 80.6 ± 44.2 ng/mL
concentration at 4 day [7]: 81.5 ± 49.6 ng/mL
concentration at 5 day [7]: 81.5 ± 43.9 ng/mL
concentration at 6 day [7]: 76.4 ± 38.6 ng/mL
AUC [8]: 1510 ± 660 ng·h/mL
AUC(0-t) (both sexes, human, plasma, oral, 50 mg, 50 mg BID, day 7, read-out: AUC0-12): 1510 ng·h/mL
AUC(0-t) (both sexes, human, plasma, oral, 50 mg, 50 mg BID, day 7, read-out: AUC0-24, total daily exposure calculated as AUC0-12 × 2): 3040 ng·h/mL
AUC(0-t) (both sexes, human, plasma, oral, 50 mg, 50 mg BID, day 7, read-out: AUC0-t): 2260 ± 1070 ng·h/mL
Cmax (both sexes, human, plasma, oral, 50 mg, 50 mg BID, day 7, read-out: Cmax): 219 ng/mL
Tmax [8]: 3 h
half-life [8]: 11.6 h
concentration at 7 day (both sexes, human, plasma, oral, 80 mg BID, day 7): 158 ng/mL
AUC (both sexes, human, plasma, oral, 80 mg, 80 mg BID, day 1): 1690 ± 454 ng·h/mL
AUC(0-t) (both sexes, human, plasma, oral, 80 mg, 80 mg BID, day 1, read-out: AUC0-t): 1680 ± 451 ng·h/mL
